Source: US20210355166A1, “[…] METHODS OF USE THEREOF” (priority 2018, published 2021)
“Also recorded” adds a separate entry of the source. Like-named read-outs stand apart in the source and are kept apart here. Marks after values point to notes of the source that are not given here. Non-standard residues stand in square brackets, D forms with d. No end group written: not given here. *: point of attachment. β‑Lac = OC[C@H]1O[C@@H](O[C@H]2[C@H](O)[C@@H](O)[C@H](*)O[C@@H]2CO)[C@H](O)[C@@H](O)[C@H]1O; Dmt = Cc1cc(O)cc(C)c1C[C@H](N)C(=O)O

Assays:
C57BL/6 mice = assay: Nociception (analgesia) testing on 54 C hotplate; type: in vivo, mouse; conditions: for analgesic activity after systemic administration: 54° C. hotplate
Method: Experiments were performed under the guidelines of the Australian code of practice for the care and use of animals for scientific purposes (National Health and Medical Research Council, Australia, 7th Edition). Great care was taken to minimise animal suffering during these experiments and to reduce the number of animals used. […] Food and water was available ad libitum. Mice were given at least 7 days to habituate to housing facilities prior to handling, and handled by the experimenter for 4 days prior to testing. […] The experimenter was blind to all drugs tested. Animals were tested on a 54° C. hotplate, with a maximum cut-off time of 20 seconds to prevent tissue damage. Endpoints were hindpaw lick, hindpaw flutter or jump. […] The percentage of maximal possible effects (% MPE) were calculated as follows: % MPE=(test latency−baseline latency)/(cutoff latency−baseline latency)×100%. The cut-off latency was 20 seconds. Significant differences were assessed with a two-way ANOVA and Tukey's post hoc multiple comparisons test. […] Doses were transformed to the logarithm of μmol/kg. A two-way ANOVA was used to compare data at equimolar doses.

MOPr [1] = target: T1, MOPr (Mus musculus, UniProt P42866); type: cell-based; parameters: expressed in transfected cells; conditions: for internalisation signal in GRK2 positive cells: GRK2-YFP and β-arrestin 2-HA overexpressed
T1 sequence (P42866 whole entry): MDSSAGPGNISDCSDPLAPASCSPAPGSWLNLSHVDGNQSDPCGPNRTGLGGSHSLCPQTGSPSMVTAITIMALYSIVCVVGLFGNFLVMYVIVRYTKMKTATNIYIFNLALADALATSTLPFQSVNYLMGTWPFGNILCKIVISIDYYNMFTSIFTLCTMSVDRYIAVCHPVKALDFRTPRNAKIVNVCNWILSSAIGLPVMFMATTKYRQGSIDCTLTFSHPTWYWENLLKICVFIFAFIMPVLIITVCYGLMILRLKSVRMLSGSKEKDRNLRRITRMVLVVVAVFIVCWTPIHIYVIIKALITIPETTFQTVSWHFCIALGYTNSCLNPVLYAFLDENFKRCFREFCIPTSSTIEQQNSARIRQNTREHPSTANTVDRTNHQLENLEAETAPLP
Method: (§1) Endocytosis assay: Receptor internalization was quantified using a ratiometric staining of membrane and internalized receptors. […] Cells were then incubated for an additional 30 min with indicated agonist at 37° C. To unbind the M1 anti-FLAG antibody from the surface receptors, cells were quickly washed three times with ice-cold PBS lacking Mg^2+ and Ca^2+ and supplemented with 0.04% EDTA (pH 7.4).
Only YFP positive cells were analyzed for internalization.
See also FIGS. 11C and 11D.

MOPr [2] = target: T1, MOPr; type: cell-based; parameters: expressed in transfected cells; host or cells: AtT20 cells, transient co-transfection
Method: Arrestin recruitment: Agonist-induced recruitment of β-arrestin2 to MOPr was examined using a BRET-based approach. AtT20 cells were plated in 10-cm dishes and co-transfected with MOPr C-terminally tagged with Rluc8 (MOPr-RLuc8), β-arrestin2-YFP and GRK2 (1 μg, 4 μg and 2 μg, respectively). 24 h after transfection wells were replated into white opaque 96-well plates (CulturPlate, PerkinElmer) and allowed to adhere overnight. Cells were washed with Hank's Balanced Salt Solution (HBSS) and equilibrated in HBSS for 30 min at 37° C. prior to the experiment. Coelenterazine h was added to a final concentration of 5 μM 10 min before dual fluorescence/luminescence measurement in a LUMIstar Omega plate reader (BMG LabTech). Baseline BRET was measured for 30 sec prior to addition of the indicated ligand. The BRET signal was calculated as the ratio of light emitted at 530 nm by YFP over the light emitted at 430 nm by Renilla luciferase 8 (RLuc8).

MOPr [3] = target: T1, MOPr; assay: GIRK conductance in MOPr expressing AtT20 cells without fractional inactivation of MOPr; type: cell-based; parameters: expressed in transfected cells
Method: The recording electrodes were first front filled with this internal solution and then backfilled with the same solution containing 200 μg/ml amphotericin B (in 0.8% DMSO). […] Liquid junction potential was calculated to be +16 mV and was adjusted before the start of each recording. […] Currents were sampled at 100 Hz, low pass filtered at 50 Hz and recorded on hard disk for later analyses. IGIRK was recorded using a 200 ms voltage step to −120 mV from a holding potential of −60 mV delivered every 2 s. Drugs were perfused directly onto cells using a ValveLink 8.2 pressurized pinch valve perfusion system (AutoMate Scientific, USA).

MOPr [4] = target: T2, MOPr (Rattus norvegicus, UniProt P33535); assay: Patch-clamp recordings of GIRK currents in rat locus coeruleus (LC) neurons; type: cell-based
T2 construct: which natively express MOPr but not DOPr or KOPr; from tissue; host or cells: brain slices with locus coeruleus neurons, male Sprague Dawley rats
T2 sequence (P33535 whole entry): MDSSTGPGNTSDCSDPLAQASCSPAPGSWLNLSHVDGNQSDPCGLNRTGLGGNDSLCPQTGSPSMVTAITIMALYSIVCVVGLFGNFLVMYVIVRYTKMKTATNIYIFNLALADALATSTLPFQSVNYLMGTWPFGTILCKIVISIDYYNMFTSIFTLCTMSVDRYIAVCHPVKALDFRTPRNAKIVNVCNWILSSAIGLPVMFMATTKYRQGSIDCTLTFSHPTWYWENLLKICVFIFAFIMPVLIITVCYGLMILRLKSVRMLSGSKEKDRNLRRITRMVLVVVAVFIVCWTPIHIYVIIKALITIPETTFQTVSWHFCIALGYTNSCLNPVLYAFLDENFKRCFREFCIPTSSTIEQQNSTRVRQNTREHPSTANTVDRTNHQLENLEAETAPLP
Method: Briefly, rats were anesthetized with isoflurane and decapitated. The brain was dissected and mounted in a vibratome chamber (Leica biosystem, VT100, Wetzlar, Germany) in order to prepare horizontal brain slices (280 μm). […] Slices were incubated in warm oxygenated ACSF for at least 30 min before recording. Slices were transferred to the recording chamber while warm ACSF (34° C.) was superfused at a rate of ˜2 mL/min. Whole-cell voltage-clamp recordings were acquired from LC neurons with Multiclamp 700B amplifier (Molecular Devices, CA, USA) at holding potential of −60 mV. […] Continuous current recordings were collected in chart mode at 500 Hz and filtered at 20-50 Hz using Axograph X (Axograph Scientific, Sydney, Australia). Series resistance monitored throughout the experiments and remained <15 MΩ; otherwise the data were discarded. Outward current was measured as the difference between baseline current and peak current of drug application.

MOPr [5] = target: T1, MOPr; assay: MOPr internalisation (endocytosis assay) in AtT20 cells; type: cell-based; parameters: expressed in transfected cells
Method: (§2) Imaging parameters including laser intensity, photomultiplier tube (PMT) voltage and offset remained constant for each experiment. Mean fluorescence intensity was measured using ImageJ software to calculate mean gray value of an area defined […] a single cell. Each experiment was normalized to the mean of untreated cells as 0% and the mean of cells treated with saturating concentrations of Met-enk (30 μM) as 100%.
as §1, with “MOPr internalisation was assessed immunocytochemically after 30 minutes of agonist treatment (FIGS. 8, 9). […] Endocytosis” for “Endocytosis”

mouse MOPr (mMOPr) = target: T3, mouse MOPr (mMOPr) (Mus musculus, UniProt P42866); type: cell-based; conditions: for GIRK (80% knockdown) log(tau/KA): operational model fit
T3 construct: expressed in transfected cells
T3 sequence (P42866 whole entry): as the sequence (P42866 whole entry) above

[6] = target: human µ-opioid receptor (hMOPr), human recombinant MOPr expressed in HEK-293 cells (human) (UniProt P35372); assay: cell-based or functional assay
Sequence of human µ-opioid receptor (hMOPr), human recombinant MOPr expressed in HEK-293 cells (human) (P35372 whole entry): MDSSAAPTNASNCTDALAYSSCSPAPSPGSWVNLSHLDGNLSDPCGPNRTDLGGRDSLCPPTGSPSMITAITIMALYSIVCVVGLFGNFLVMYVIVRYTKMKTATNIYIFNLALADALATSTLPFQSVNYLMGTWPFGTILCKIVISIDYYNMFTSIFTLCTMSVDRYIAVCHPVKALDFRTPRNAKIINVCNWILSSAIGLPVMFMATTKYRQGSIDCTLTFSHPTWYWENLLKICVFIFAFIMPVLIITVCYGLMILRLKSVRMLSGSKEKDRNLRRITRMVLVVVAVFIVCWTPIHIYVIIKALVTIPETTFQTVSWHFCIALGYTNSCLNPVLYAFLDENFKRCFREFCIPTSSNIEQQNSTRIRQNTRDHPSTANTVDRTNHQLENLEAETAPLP

MOPr [7] = target: T1, MOPr; assay: Ser375 phosphorylation assay in AtT20 cells expressing MOPr; type: cell-based; parameters: expressed in transfected cells; conditions: met-enkephalin defined as 100%
Method: Cells were serum starved for at least 30 min and then incubated in the absence or presence of the indicated ligand for 5-10 min at 37° C. Phosphorylation was terminated by fixing the cells with −30° C. methanol followed by 10 min incubation on ice. Cells were washed three times with phosphate buffered saline (PBS) and then heated in sodium citrate buffer (10 mM, 0.05% Tween 20, pH.6) for 20 min at 95° C. […] Imaging was performed as detailed below.
as §2

[8] = target: MOPr C-terminally tagged with Rluc8 (MOPr-RLuc8), transfected in AtT20 cells; assay: cell-based or functional assay
[9] = target: FLAG tagged mouse MOPr (mMOPr) stably expressed in AtT20 cells (mouse) (UniProt P42866); assay: cell-based or functional assay
Sequence of FLAG tagged mouse MOPr (mMOPr) stably expressed in AtT20 cells (mouse) (P42866 whole entry): as the sequence (P42866 whole entry) above

[10] = target: MOPr natively expressed by rat locus coeruleus (LC) neurons (rat, UniProt P33535 1-398); assay: cell-based or functional assay
Sequence of MOPr natively expressed by rat locus coeruleus (LC) neurons (P33535 whole entry): as the sequence (P33535 whole entry) above

[11] = target: T4, human µ-opioid receptor (hMOPr), human recombinant MOPr expressed in HEK-293 cells (human, UniProt P35372 1-400); assay: competition with [3H]DAMGO at hMOPr
T4 construct: whole, on cells; the cAMP assay used whole HEK cells expressing hMOPr
T4 sequence (P35372 whole entry): as the sequence (P35372 whole entry) above
Method: (§3) The specific ligand binding to the receptors is defined as the difference between the total binding and the nonspecific binding determined in the presence of an excess of an unlabelled opioid ligand (naloxone, 10 μM). The results are expressed as a percent of control specific binding ((measured specific binding/control specific binding)×100) obtained in the presence of unlabelled peptides of interest. The IC₅₀ values (concentration causing a half-maximal inhibition of control specific binding) and Hill coefficients (nH) were determined by non-linear regression analysis of the competition curves generated with mean replicate values using Hill equation curve fitting (Y=D+[(A−D)/(1+(C/C₅₀nH)], where Y=specific binding, D=minimum specific binding, A=maximum specific binding, C=compound concentration, C₅₀=IC₅₀, and nH=slope factor).

[12] = target: T4, human µ-opioid receptor (hMOPr), human …; assay: competition with [3H]DAMGO (0.5 nM), membranes with human recombinant MOPr (HEK-293), filtration and scintillation counting
Method: as §3

[13] = target: T4, human µ-opioid receptor (hMOPr), human …; assay: cell-based or functional assay

Molecule: 2,6-dimethyl-L-tyrosine-D-Val-L-Val-D-Phe-L-Ser(β-Lac)-NH2 ([Dmt][dV]V[dF]S(β‑Lac)-NH2; N-terminus assumed; SMILES Cc1cc(O)cc(C)c1C[C@H](N)C(=O)N[C@@H](C(=O)N[C@H](C(=O)N[C@H](Cc1ccccc1)C(=O)N[C@@H](CO[C@@H]1O[C@H](CO)[C@@H](O[C@@H]2O[C@H](CO)[C@H](O)[C@H](O)[C@H]2O)[C@H](O)[C@H]1O)C(N)=O)C(C)C)C(C)C) [peptide 3g]
- analgesic activity after systemic administration (C57BL/6 mice; s.c., listed as Bilactorphin): dose-dependent analgesia; also recorded: equipotent with morphine
- analgesic activity after systemic administration (C57BL/6 mice; s.c., listed as bilactorphin): potent analgesic
- peak effect after i.v (C57BL/6 mice; hotplate, i.v): 88.9±11.8 % MPE
- activity after oral administration (C57BL/6 mice; hotplate, oral gavage): active
- ED50, hotplate, systemic administration s.c. (C57BL/6 mice; s.c.): 34 µmol/kg
- internalization compared to bilorphin (MOPr [1]; 30 μM, after GRK2 overexpression): modest
- β-arrestin recruitment compared to bilorphin (MOPr [2]): modest
- agonist action in AtT20 cells (MOPr [3]): potent partial opioid agonist
- potency compared with bilorphin in AtT20 cells (MOPr [3]): small loss of potency

Molecule: CC(=O)N[C@@H](Cc1ccc(O)cc1)C(=O)N[C@@H](C(=O)N[C@H](C(=O)N[C@H](Cc1ccccc1)C(N)=O)C(C)C)C(C)C [3d, Aε-YvVf-NH2]
- activity in LC neurons (MOPr [4]; 10-30 μM): inactive

Molecule: COc1ccsc1CNCC[C@@]1(c2ccccn2)CCOC2(CCCC2)C1 [oliceridine]
- internalisation signal in GRK2 positive cells (MOPr [1]): clear internalisation signals
- Internalisation Emax (MOPr [5]; 30 min agonist, met-enkephalin defined as 100%): No activity
- GGIRK maximal response / intrinsic efficacy (mouse MOPr (mMOPr)): significantly less efficaciously than either morphine or bilorphin
- GIRK (80% knockdown) Emax (mouse MOPr (mMOPr); AtT20 mMOPr cells after β-CNA, relative to somatostatin): 0.33 ± 0.01
- GIRK (80% knockdown) log(tau/KA) (mouse MOPr (mMOPr)): 7.2 ± 0.08

Molecule: Cc1cc(O)cc(C)c1C[C@H](N)C(=O)N[C@@H](C(=O)N[C@H](C(=O)N[C@H](Cc1ccccc1)C(N)=O)C(C)C)C(C)C [peptide 3c, 2,6-dimethyl-L-tyrosine-D-Val-L-Val-D-Phe-NH2]
- peak effect after intrathecal injection (C57BL/6 mice; hotplate, 5 nmol/mouse intrathecal): 41±9 % MPE
- nociception in the hotplate test, intravenous (C57BL/6 mice; i.v. 50 mg/kg, versus vehicle): failed to inhibit nociception
- nociception in the hotplate test, subcutaneous (C57BL/6 mice; s.c. 100 mg/kg, versus vehicle): failed to inhibit nociception
- internalisation signal in GRK2 positive cells (MOPr [1]): clear internalisation signals
- agonist action in AtT20 cells (MOPr [3]): potent partial opioid agonist
- agonist action on GIRK current in LC neurons (MOPr [4]; compared with morphine): agonist with potency greater than morphine

Molecule: DAMGO ([D-Ala^2, N-MePhe^4, Gly^5-ol]-enkephalin) (peptide)
- % inhibition of forskolin-stimulate cAMP formation in hMOPr HEK cells (10 um) [6]: 94%

Molecule: H-FVVF-NH2 (peptide)
- % inhibition of forskolin-stimulate cAMP formation in hMOPr HEK cells (10 um) [6]: 19%

Molecule: endomorphin-2
- Internalisation Emax (MOPr [5]): 94 ± 3%
- Internalisation log(tau/KA) (MOPr [5]): 6.2 ± 0.05
- MOPr internalisation (MOPr [5]): robust internalisation
- GIRK (80% knockdown) log(tau/KA) (mouse MOPr (mMOPr)): 7.5 ± 0.04
- β-arrestin 2 recruitment Emax (MOPr [2]; BRET): 100 ± 3
- β-arrestin 2 recruitment log(tau/KA) (MOPr [2]; operational model fit): 7.0 ± 0.06
- Phosphorylation Emax (MOPr [7]): 98 ± 2%

Molecule: endomorphin-2 (peptide)
- β-arrestin 2 recruitment (BRET): Emax [8]: 100
- β-arrestin 2 recruitment (BRET): log(EC50) [8]: -7
- β-arrestin 2 recruitment (BRET): log(tau/KA) [8]: 7
- GIRK (80% knockdown): Emax [9]: 0.64
- GIRK (80% knockdown): log(EC50) [9]: -6.9
- GIRK (80% knockdown): log(tau/KA) [9]: 7.5
- Internalisation of MOPr: Emax [9]: 94%
- Internalisation of MOPr: log(EC50) [9]: -6.4
- Internalisation of MOPr: log(tau/KA) [9]: 6.2
- Phosphorylation (Ser375 of MOPr): Emax [9]: 98%
- Phosphorylation (Ser375 of MOPr): log(EC50) [9]: -7.2
- Phosphorylation (Ser375 of MOPr): log(tau/KA) [9]: 7.2

Molecule: met-enkephalin
- Internalisation Emax (MOPr [5]): 100* %
- MOPr internalisation (MOPr [5]): robust internalisation
- Phosphorylation Emax (MOPr [7]): 100* %

Molecule: H-YVVF-OH [H-YVVF-OH]
- Agonist potency in LC neurons EC50 [10]: > 10000 nM

Molecule: YVVF (D-Val at 2; D-Phe at 4; C-terminal amide, also called 3b; peptide 3b) [H-YvVf-NH2 (L-Tyr-D-Val-L-Val-D-Phe-NH2)]
- fold increase of affinity over Bilaid C (3a) [11]: 2 fold
- Ki [12]: 93 nM

Molecule: FVVF (D-Val at 2; D-Phe at 4; C-terminal amide, also called 1e; peptide 1e) [H-FvVf-NH2 (L-Phe-D-Val-L-Val-D-Phe-NH2)]
- fold improvement of affinity over Bilaid A (1a) [11]: 4 fold
- % inhibition of forskolin-stimulate cAMP formation in hMOPr HEK cells (10 um) [13]: 47%
- Ki [12]: 750 nM

Molecule: H-YVVF-NH2 [H-YVVF-NH2]
- Agonist potency in LC neurons EC50 [10]: > 10000 nM

Molecule: Ac-Y[dV]V[dF]-NH2 [Ac-YvVf-NH2]
- Agonist potency in LC neurons EC50 [10]: > 10000 nM
